Experimental findings from ChEMBL document CHEMBL1129014, “Crystal receptor models in medicinal chemistry: Application to the generation of highly potent potassium channel openers” (Bioorg Med Chem Lett, 1996) are described below.

Molecules are shown by their SMILES.

For the experiment, the species on record is Cavia porcellus. Description: Inhibitory activity against potassium (15 mM) induced contractions of the guinea pig detrusor smooth muscle. Type of experiment: functional.
By IC50 is commonly meant the concentration at which inhibition is half-maximal. A higher IC50 goes with lower potency. `C[C@](O)(C(=O)Nc1ccc(S(=O)(=O)c2ccccc2)cc1)C(F)(F)F` came in with an IC50 of 1 µM.
As for `C[C@](O)(C(=O)Nc1ccc([N+](=O)[O-])cc1)C(F)(F)F`, the figure is 0.5 µM; as for `C[C@@]1(C(F)(F)F)CN(c2cccc[n+]2[O-])c2cc(S(=O)(=O)c3ccccc3)ccc2O1`, 0.28 µM; as for `C[C@]1(C(F)(F)F)CN(c2cccc[n+]2[O-])c2cc(S(=O)(=O)c3ccccc3)ccc2O1`, 0.68 µM.
As for `O=[N+]([O-])c1ccc2c(c1)N(c1cccc[n+]1[O-])CC(C(F)F)(C(F)F)O2`, the IC50 stood at 0.007 µM.
As to `CC1(C(F)(F)F)CN(c2cccc[n+]2[O-])c2cc(S(=O)(=O)c3ccccc3)ccc2O1` (stereo not drawn), the half-inhibitory concentration (IC50) is 0.54 µM.
Take `CC1(C)CN(c2cccc[n+]2[O-])c2cc(S(=O)(=O)c3ccccc3)ccc2O1`: the IC50 came to 4.1 µM.
The compound `CC1(C)Oc2ccc(C#N)cc2[C@@H](N2CCCC2=O)[C@@H]1O` [CROMAKALIM] showed a 50% inhibitory concentration (IC50) of 0.6 µM.
